Test results: US12409172B2, “Dosage regimen” (UNION therapeutics A/S, priority 2023, dated 2025)
“And” between values parts separate entries of the source, which are not always exact repeats. Identical values can stand only once.

Tests used:
[1] = test system: TARC and other inflammatory markers in atopic dermatitis skin lesions; assay: Skin tape strip biomarkers (OLINK FLEX panel) in the phase 2b atopic dermatitis study (Example 11); type: in vivo, human; details: all treatment arms (20, 30, 40 mg BID)
Description: Stratum corneum skin samples were collected at the designated time points using the tape stripping method to evaluate biomarker expression levels. Tape stripping is a minimally invasive, nonscarring approach using serial adhesive films to capture the stratum corneum and the upper part of the granular layer.
At Baseline, before administration of study drug, 1 lesional and 1 non-lesional area were identified, and 20 consecutive skin samples were collected from each area. At Week 16, the same procedure was repeated only from the same lesional areas sampled at Baseline.
Skin tape strip samples were taken from lesional and non-lesional skin at baseline and lesional skin at week 16 of patients participating in the phase 2b, double-blinded, placebo-controlled, dose-finding study (20 mg, 30 mg and 40 mg orismilast modified release tablets BID) in patients with moderate-to-severe atopic dermatitis (NCT05469464) described in Example 8. […] The primary objective of the biomarker study was to evaluate the effect of orismilast on a broad spectrum of inflammatory markers in atopic dermatitis skin lesions using tape strips as a non-invasive sampling technology combined with the Olink® technology (OLINK® FLEX panel) using analogous methods to those described in Example 10.
A linear mixed effect model was used on all patients to estimate Ismeans with standard error and adjusted p value.

[2] = Population pharmacokinetics (popPK) model for orismilast; parameters: species or system human
Method: All subjects were treated with orismilast as IR capsule, IR solution, IR tablet or MR tablet with available PK samples. Although the modified release tablet was the formulation selected for further studies, the popPK model was also built using the immediate release formulations (IR solution, IR tablet and IR capsule), especially to obtain stable estimates of elimination parameters (clearances) across formulations and obtain a robust model to support the simulation.
PopPK parameters were estimated by non-linear mixed effect modelling using MONOLIX. Mixed effects models describe the influence of both fixed effects and random effects. The random effects are typically used to capture the variability which can be split in residual variability (error) and between-subject variability.
The population model was defined by 4 components: • 1. The structural popPK model components, which defines the PK parameters and describe the plasma concentration-time profiles of orismilast. • 2. The inter-individual random effect model component, which describes the inter-individual variation (IIV) and inter-occasion variation (IOV) in PK parameters after correction for fixed effects. • 3. The residual error (or random effect) model component, which describes the underlying distribution of the error in the measured concentrations. • 4. The covariate model component, which describes the influence of fixed effects (i.e., demographic factors) on PK parameters.
The search for the final model followed the following stepwise strategy: • 1. Selection of the simplest structural model, which predicts the plasma concentration as a function of time and dose, based on smallest objective function (OF) and by the pattern in the residual plots. The best structural model, the most appropriate.IIV and IOV models, and the residual error model, were identified. The structural model was determined using the rich Phase I data from healthy volunteers (LP0058-S01, LP0058-1005, LP0058-1114, LP0058-1362, LP0058-1324 and LP0058-1442). • 2. Preliminary visual check using predictive check approach was applied to sparse data from psoriasis patients (study LP0058-1072) to assess the predictability capacities of the structural model for patient data. • 3. Psoriasis patient data were included in the model and the model was refined or adjusted if necessary. • 4. Graphical exploration of the covariates: between individual covariates and EBE of parameter or random effects. • 5. Determination of the covariate model. • 6. Selection of significant covariates to obtain the FINAL model. • 7. Inclusion of new studies in the model (e.g. UN1500001-203 and CIB1353A101) was performed by repeating steps 2 to 6.
The pre-specified covariates that were suspected a priori of having an influence on PK parameters, were included in the full model and the selection of the final model with relevant covariates were based on the statistical Wald test (keep covariates with p-value <0.05). The influence of body weight on PK parameters was included using fixed standard allometric scales.
The model was evaluated using diagnostic and goodness of fit plots and validated using Visual Predictive Checks. SAS® software V9.4 and Monolix Suite version 2021R1 release were used.
The structural model was parameterised in terms of apparent clearance (CL/F), volume of distribution of central compartment (V1/F), inter-compartmental clearance (Q/F) and volume of distribution for peripheral compartment (V2/F). The absorption was described by a 1st—order rate constant (ka1) for first absorption process, 1st—order rate constant (ka2) for second absorption process, fraction of dose absorbed through the first process (F1) and lag time (tlag2) for the start of the second phase. The relative bioavailability was also added to characterize the difference between the formulations, it was set to 1 for the IR solution, so, the other formulations were expressed relatively to the IR solution. […]

## O=C(Cc1c(Cl)c[n+]([O-])cc1Cl)c1ccc(OC(F)F)c2c1OC1(CCS(=O)(=O)CC1)O2 [orismilast, 2-(3,5-dichloro-1-oxidopyridin-1-ium-4-yl)-1-[7-(difluoromethoxy)-1′,1′-dioxospiro[1,3-benzodioxole-2,4′-thiane]-4-yl]ethanone]
[1]
  TARC in lesional skin at week 16 of treatment: significant reduction
[2]
  variability of the central PK parameters: 27% and 34%
[2]; 1442 - Part 1 (MR, 30 mg)
  AUClast GM ratio (popPK/NCA): 1.03
[2]; 1442 - Part 2 (Fast, 30 mg)
  AUClast GM ratio (popPK/NCA): 1.14
[2]; 1442 - Part 3 (D1 = 10 mg)
  AUClast GM ratio (popPK/NCA): 0.98
[2]; 1442 - Part 3 (D17 = 60 mg)
  AUClast GM ratio (popPK/NCA): 0.97
[2]; CIBI3S3A101 (D1 = 10 mg)
  AUClast GM ratio (popPK/NCA): 0.98
[2]; peripheral compartment
  variability of Q/F: 383%
  variability of V2/F: 495%
